Test results: patent publication US20160355465A1, “NOVEL MODIFIED CURCUMINS AND THEIR USES” (THE RESEARCH FOUNDATION OF STATE UNIVERSITY OF NEW YORK, priority 2011, published 2016)

Key:
MMP-8 = MMP-8 (Homo sapiens, UniProt P22894); test: fluorimetric assay of MMP activity; format: biochemical; conditions: synthetic fluorescent peptide substrate Mca-Lys-Pro-Leu-Gly-Leu-Dpa-Ala-Arg-NH2
MMP-9 [1] = target: MMP-9 (Homo sapiens, UniProt P14780); test: fluorimetric assay of MMP activity; format: biochemical; conditions: synthetic fluorescent peptide substrate Mca-Lys-Pro-Leu-Gly-Leu-Dpa-Ala-Arg-NH2
MMP-9 (Homo sapiens, UniProt P14780), sequence (P14780 94-707): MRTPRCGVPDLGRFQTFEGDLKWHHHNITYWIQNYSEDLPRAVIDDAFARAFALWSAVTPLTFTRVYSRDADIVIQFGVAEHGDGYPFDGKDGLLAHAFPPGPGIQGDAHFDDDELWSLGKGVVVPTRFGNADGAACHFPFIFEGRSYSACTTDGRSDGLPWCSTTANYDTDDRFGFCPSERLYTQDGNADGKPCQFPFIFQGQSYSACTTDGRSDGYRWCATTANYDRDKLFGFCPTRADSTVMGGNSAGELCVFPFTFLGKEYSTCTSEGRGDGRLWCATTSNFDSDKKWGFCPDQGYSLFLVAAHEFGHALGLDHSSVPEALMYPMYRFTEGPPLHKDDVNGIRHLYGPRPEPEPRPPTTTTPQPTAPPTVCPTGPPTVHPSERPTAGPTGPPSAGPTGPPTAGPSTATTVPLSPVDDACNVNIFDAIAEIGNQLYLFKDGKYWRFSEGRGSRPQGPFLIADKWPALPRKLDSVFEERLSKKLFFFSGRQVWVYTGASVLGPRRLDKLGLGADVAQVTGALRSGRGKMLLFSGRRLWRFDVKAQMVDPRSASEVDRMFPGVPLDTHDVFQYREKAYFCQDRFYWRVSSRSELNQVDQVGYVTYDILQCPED

MMP-14 = MMP-14 (Homo sapiens, UniProt P50281); test: fluorimetric assay of MMP activity; format: biochemical; conditions: synthetic fluorescent peptide substrate Mca-Lys-Pro-Leu-Gly-Leu-Dpa-Ala-Arg-NH2
skin wounds [2] = test: healing of 6 mm skin wounds in streptozotocin-diabetic rats, clinical wound diameter; format: in vivo, rat; conditions: 7 days
Experimental: Three weeks after inducing diabetes, the back skin of all the rats was shaved and a series of 6 standard wounds per rat, each 6 mm in diameter, was made using a surgical trephine.
A finely-ground sample (0.1 g) of Compound 4 [4-(phenylaminocarbonyl)-1,7-bis(4-hydroxyphenyl)hepta-1e,6e-diene-3,5-dione] was added to petrolatum jelly (9 g) and the mixture was homogenized for 15 minutes at 25° C., then allowed to settle for 5 minutes. This procedure was repeated nine times, producing a homogeneous product having a cream-like consistency. This was then used in topical application to wounds.
The following five experimental groups (n=3 rats per group) were established: Non-diabetic control rats (NDC) treated by daily application of white petrolatum jelly (“vehicle”) for 7 days, diabetic rats (D group) treated daily with vehicle alone; diabetics treated by daily topical application of either a 1% (D+1%) or a 3% (D+3%) suspension of Compound 4 in the vehicle; and diabetics treated systemically by daily oral intubation of a 1 ml suspension of Compound 4 (in carboxymethylcellulose) at a dose of 30 mg/kg over the 7-day treatment protocol (D+30 mg/kg). At the end of this time period, the circular wounds were clinically assessed by measuring diameter of the wound in millimeters, blood samples were collected, the rats were sacrificed, and skin samples collected for histological/histochemical, and biochemical assessment as described below. • 1) On day 7 after inducing wound healing, the animals were anesthetized and blood samples collected for blood glucose (one Touch Ultra Glucometer; Johnson & Johnson, New Brunswick, N.J.) and Hemoglobin A1c (A1c Now+; Bayer Health Care, Sunnyvale, Calif.) measurements. • 2) Photographs were taken for clinical observations to assess wound closure. The % reduction of the wound surface was calculated by measuring the diameter (in millimeters) of each wound before and after the treatment protocol. • 3) Wound tissues on day 7 were excised from 3 sites per rat and pooled for biochemical analysis. […]

[3] = test system: MMP-2 (72 kDa gelatinase); test: gelatin zymography of skin wound extracts; format: in vivo, rat; conditions: diabetic rats, 1% topical, day 7
Experimental: (§1) The following five experimental groups (n=3 rats per group) were established: Non-diabetic control rats (NDC) treated by daily application of white petrolatum jelly (“vehicle”) for 7 days, diabetic rats (D group) treated daily with vehicle alone; diabetics treated by daily topical application of either a 1% (D+1%) or a 3% (D+3%) suspension of Compound 4 in the vehicle; and diabetics treated systemically by daily oral intubation of a 1 ml suspension of Compound 4 (in carboxymethylcellulose) at a dose of 30 mg/kg over the 7-day treatment protocol (D+30 mg/kg). At the end of this time period, the circular wounds were clinically assessed by measuring diameter of the wound in millimeters, blood samples were collected, the rats were sacrificed, and skin samples collected for histological/histochemical, and biochemical assessment as described below. • 1) On day 7 after inducing wound healing, the animals were anesthetized and blood samples collected for blood glucose (one Touch Ultra Glucometer; Johnson & Johnson, New Brunswick, N.J.) and Hemoglobin A1c (A1c Now+; Bayer Health Care, Sunnyvale, Calif.) measurements. • 2) Photographs were taken for clinical observations to assess wound closure. […]

[4] = test system: MMP-9 (92 kDa gelatinase); test: gelatin zymography of skin wound extracts; format: in vivo, rat; conditions: diabetic rats, all three treatments (1%, 3% topical, oral 30 mg/kg), day 7
Experimental: as §1

skin wounds [5] = test: histological and histomorphometric assessment of skin wounds; format: in vivo, rat; conditions: diabetic rats, topical 1% and systemic compared with topical 3%, 7 days
Experimental: as §1

peritoneal macrophages = test: macrophage accumulation in peritoneal exudates of diabetic rats; format: in vivo, rat; conditions: oral 30 mg/kg daily, 21 days
Experimental: (§2) Adult male Sprague-Dawley rats (body weight 300-350 g) were injected through the tail vein with either 0.9% saline (non-diabetic control) or with the same solution containing streptozotocin (70 mg/kg body weight) to induce diabetes. Non-diabetic rats served as normal controls. The diabetic rats were distributed into 2 experimental groups (3 rats per group). Urine glucose levels were measured weekly with Tes-Tape (Eli Lilly Inc.). One group of rats was treated by oral gavage of Compound 4 (30 mg/kg body weight) daily for 21 days; the Compound 4 was suspended in 2% carboxymethyl cellulose and polytron/homogenized. The normal & diabetic vehicle-treated (control) groups were oral gavaged with vehicle alone daily.
(§3) Rat peritoneal macrophages were harvested with 10 ml RPMI 4 days after intraperitoneal injection of 10 ml of thioglycolate (3% wt/vol). Macrophages were then purified by density gradient centrifugation (lymphoprep) and cell numbers were counted in a hemocytometer. The cells were then tested in a cell migration assay (Cell BioLabs, Inc, CytoSelect 96-well with 5 um fluorometric format) using conditioned medium containing inflammatory mediators including MCP-1 from LPS-macrophages as a chemoattractant. The macrophages from different groups of rats were also plated onto 24 well-plates with and without p.g.LPS challenge for 24 hours in 37° C., 5% CO2. […]

IL-1β = test: cytokine production by peritoneal macrophages of orally treated diabetic rats in culture; format: in vivo, rat; conditions: oral 30 mg/kg daily, 21 days, culture with or without P. gingivalis LPS
Experimental: as §2, §3

IL-6 = test: as above; format: in vivo, rat; conditions: oral 30 mg/kg daily, 21 days, culture with or without P. gingivalis LPS
Experimental: as §2, §3

MMP-9 [6] = test: MMP-9 in conditioned media of peritoneal macrophages, gelatin zymography; format: in vivo, rat; conditions: diabetic rats, oral 30 mg/kg daily, 21 days; no LPS
Experimental: as §2, §3

[7] = blood glucose of the rats of the collagen experiment; format: in vivo, rat; conditions: diabetic rats
contact dermatitis = test: poison ivy contact dermatitis on the arms of a human subject, topical; format: in vivo; conditions: Example 9
From the text: The leaves of a poison ivy plant are applied to equally sized areas of the left and right arms of a human subject.

MMP-8, sequence (P22894 101-467): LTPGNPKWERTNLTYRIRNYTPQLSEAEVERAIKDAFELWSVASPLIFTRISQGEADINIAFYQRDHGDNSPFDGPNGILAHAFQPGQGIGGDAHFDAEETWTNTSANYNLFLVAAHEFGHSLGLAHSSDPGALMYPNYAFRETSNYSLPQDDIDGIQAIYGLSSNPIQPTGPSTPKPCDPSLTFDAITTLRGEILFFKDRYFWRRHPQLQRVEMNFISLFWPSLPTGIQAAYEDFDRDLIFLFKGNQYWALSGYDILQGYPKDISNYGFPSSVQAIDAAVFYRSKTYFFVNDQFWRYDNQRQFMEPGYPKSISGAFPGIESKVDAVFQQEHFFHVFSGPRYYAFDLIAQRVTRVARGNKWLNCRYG

Question: What does the source list for `O=C(/C=C/c1ccc(O)cc1)C(C(=O)/C=C/c1ccc(O)cc1)C(=O)Nc1ccccc1` [Compound 4, 1,7-Bis(4-hydroxyphenyl)-4-N-phenylaminocarbonylhepta-1E, 6E-dien-3,5-dione]?
Answer: IC50 (MMP-8): 4.5 ± 0.5 µM; IC50 (MMP-9 [1]): 8 ± 0.6 µM; IC50 (MMP-14): 15.3 ± 3.1 µM; reduction in wound diameter (skin wounds [2]; 1% topical in petrolatum jelly, daily, non-diabetic control 30%): 35%; wound healing (in words) (skin wounds [2]; 3% topical, daily): significant increase in wound healing over that of the untreated diabetic control; wound healing (in words) (skin wounds [2]; systemic, oral 30 mg/kg daily): returned wound healing characteristics to that seen in the non-diabetic control group; MMP-2 in skin wounds [3]: does not suppress, and perhaps even enhances; level of pro-MMP-9 and activated MMP-9 in skin wounds [4]: attenuated this diabetic effect; histological healing of epithelium and connective tissue (skin wounds [5]): more effective than treatment with topical 3% Compound 4; macrophage accumulation in peritoneal exudates (peritoneal macrophages): decreased pathologically excessive macrophage accumulation; IL-1β production by peritoneal macrophages (IL-1β): decreased excessive inflammatory cytokine; IL-6 production by peritoneal macrophages (IL-6): decreased excessive inflammatory cytokine; MMP-9 levels in peritoneal macrophages (MMP-9 [6]): decreased; Blood Glucose ([7]; 0.25% topical): 538 mg/dL; Blood Glucose ([7]; 1% topical): 545 mg/dL; itching and healing of contact dermatitis compared with Compound 2 (contact dermatitis): stops itching sooner and heals quicker
